Reference: patent publication US10365269B2, “System and methods for detecting ribosome inhibition” (priority 2015, dated 2019)
Entries after “also recorded” stand apart in the source; their conditions may differ.

Tests used:
Format in all cases: cell-based
E. coli SH434 = test: Growth inhibition assay of aminoglycoside-sensitive E. coli SH434 (pSH6-KF, pRRSH2)
Procedure: (§1) All cell density and fluorescence measurements were taken in triplicate. 96-well culture plates (1 mL LB per well) with appropriate concentrations of necessary antibiotics and aminoglycoside were inoculated 1:100 from a saturated overnight liquid culture and allowed to grow for 48 hours at 37° C., 200 rpm shaking. For cell density assays, 40 μL of sample was taken from each well, diluted 5-fold, and OD600 was measured by microplate reader. The OD600 of the original culture was calculated by multiplying the reading by the dilution factor (Melançon et al., 2009, Bioorg. Med. Chem. Lett. 19:3845-3847). For cell pellet fluorescence imaging, cells were pelleted by centrifugation (4,000×g, 15 minutes, 4° C.) and the supernatant was decanted completely. […] For fluorescence quantification, cell pellets were resuspended in 1 mL of ¼×Ringer's solution (30.75 mM NaCl, 1.2 mM, KCl, 1.5 mM CaCl2, pH 7.3-7.4), 200 μL of cells from each well were transferred to black 96-well plates, and GFP fluorescence was measured (excitation=395 nm, bandwidth=9 nm; emission=509 nm, bandwidth=15 nm). Fluorescence intensities were calculated as fluorescence/OD600 of the sample minus fluorescence/OD600 of a sample of a non-GFP-expressing E. coli strain parental to the strain being analyzed in order to correct for both cell density and E. coli auto-fluorescence. […]

O-ribosome [1] = test: O-ribosome inhibition fluorescence assay in E. coli SH399 (pSH6-KF, pRRSH2-A1408G); settings: for relative ribosome inhibition activity (rank among ten compounds) / fluorescence at drug concentrations beyond those that give the peak response: E. coli SH399; for relative ribosome inhibition activity (rank among ten compounds): printed order: sisomicin, gentamicins, neomycin B, paromomycin, tobramycin, amikacin, ribostamycin, apramycin, kanamycin A, neamine; for detection of O-ribosome inhibition (fluorescence signal): E. coli SH399, A1408G 16S rRNA, aminoglycoside 0-500 μM, 48 h; for dose-dependent fluorescence response pattern: E. coli SH399, increasing aminoglycoside concentrations
Procedure: (§2) All cell density and fluorescence measurements were taken in triplicate. 96-well culture plates (1 mL LB per well) with appropriate concentrations of necessary antibiotics and aminoglycoside were inoculated 1:100 from a saturated overnight liquid culture and allowed to grow for 48 hours at 37° C., 200 rpm shaking. For cell density assays, 40 μL of sample was taken from each well, diluted 5-fold, and OD600 was measured by microplate reader. The OD600 of the original culture was calculated by multiplying the reading by the dilution factor (Melançon et al., 2009, Bioorg. Med. Chem. Lett. 19:3845-3847). For cell pellet fluorescence imaging, cells were pelleted by centrifugation (4,000×g, 15 minutes, 4° C.) and the supernatant was decanted completely. The underside of the plate was illuminated at 365 nm using an ultraviolet handheld lamp and photgraphed with an 8 megapixel digital camera. For fluorescence quantification, cell pellets were resuspended in 1 mL of ¼×Ringer's solution (30.75 mM NaCl, 1.2 mM, KCl, 1.5 mM CaCl2, pH 7.3-7.4), 200 μL of cells from each well were transferred to black 96-well plates, and GFP fluorescence was measured (excitation=395 nm, bandwidth=9 nm; emission=509 nm, bandwidth=15 nm). Fluorescence intensities were calculated as fluorescence/OD600 of the sample minus fluorescence/OD600 of a sample of a non-GFP-expressing E. coli strain parental to the strain being analyzed in order to correct for both cell density and E. coli auto-fluorescence.
Dose-dependent fluorescence responses by E. coli SH399 was observed when treated with five of these compounds as determined by plate reader fluorescence assays (see section 1.6 for experimental details). (FIG. 4A and FIG. 20).

O-ribosome [2] = test: O-ribosome inhibition fluorescence assay in E. coli SH431 (pSH6-KF, pRRSH2-U1406A); settings: for detection of O-ribosome inhibition (fluorescence signal): E. coli SH431, U1406A 16S rRNA, aminoglycoside 0-500 μM; for relative potency as ribosome inhibitor (rank among four compounds): printed order: gentamicins, G418 and hygromycin B, kanamycin A
Procedure: as §2
(§3) To extend the approach to a system with a different aminoglycoside resistance mutation, prrnC-sacB was replaced with pRRSH2-U1406A (see Section 2.2.2 for vector construction) in E. coli SQ380 (E. coli SH424), which was then transformed with pSH6-KF, resulting in the detection strain E. coli SH431. E. coli SH431 was used to conduct ribosome inhibition assays identical to those performed with E. coli SH399. Dose-dependent fluorescence responses by E. coli SH431 were observed when treated with four of these compounds as determined by plate reader fluorescence assays (see section 1.6 for experimental details), including two to which E. coli SH399 was not resistant and therefore could not produce a response. (FIG. 4B and FIG. 20).

E. coli SH431 = test: Cell density (OD600) growth assay of E. coli SH431
Procedure: as §2
as §3, with “E. coli SH431 was used to conduct ribosome inhibition assays identical to those performed with E. coli SH399.” left out, “(FIG. 4B and FIG. 20).” left out

TetR = biological target: T1, TetR (Escherichia coli, UniProt P04483); test: Recovery of GFPuv fluorescence in E. coli DH5α containing pSH3-KF; settings: saturating ATC
T1 construct: expressed in transfected cells; host or cells: E. coli DH5α transformed with pSH3-KF (tetR amplified from pSR26_2)
T1 sequence (P04483 whole entry): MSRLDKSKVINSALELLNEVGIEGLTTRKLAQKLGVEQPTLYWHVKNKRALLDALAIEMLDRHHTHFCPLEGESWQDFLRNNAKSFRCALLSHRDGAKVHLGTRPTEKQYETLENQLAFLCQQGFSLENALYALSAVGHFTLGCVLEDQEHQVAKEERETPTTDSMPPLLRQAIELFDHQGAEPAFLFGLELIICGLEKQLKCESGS
Procedure: as §1

E. coli SH399 = test: Cell density (OD600) growth assay of E. coli SH399; settings: E. coli SH399, concentrations beyond peak fluorescence response
Procedure: as §1

O-ribosome [3] = test: Ribosome inhibition fluorescence assay in E. coli SH391 (SH386 with pSH3-KF); settings: E. coli SH391, kanamycin 0-500 μM
Procedure: All cell density and fluorescence measurements were taken in triplicate. 96-well culture plates (1 mL LB per well) with appropriate concentrations of necessary antibiotics and aminoglycoside were inoculated 1:100 from a saturated overnight liquid culture and allowed to grow for 48 hours at 37° C., 200 rpm shaking. For cell density assays, 40 μL of sample was taken from each well, diluted 5-fold, and OD600 was measured by microplate reader. The OD600 of the original culture was calculated by multiplying the reading by the dilution factor (Melançon et al., 2009, Bioorg. Med. Chem. Lett. 19:3845-3847). For cell pellet fluorescence imaging, cells were pelleted by centrifugation (4,000×g, 15 minutes, 4° C.) and the supernatant was decanted completely. […] For fluorescence quantification, cell pellets were resuspended in 1 mL of ¼×Ringer's solution (30.75 mM NaCl, 1.2 mM, KCl, 1.5 mM CaCl2, pH 7.3-7.4), 200 μL of cells from each well were transferred to black 96-well plates, and GFP fluorescence was measured (excitation=395 nm, bandwidth=9 nm; emission=509 nm, bandwidth=15 nm). Fluorescence intensities were calculated as fluorescence/OD600 of the sample minus fluorescence/OD600 of a sample of a non-GFP-expressing E. coli strain parental to the strain being analyzed in order to correct for both cell density and E. coli auto-fluorescence.

E. coli SH386 = test: Cell viability (OD600) assay of E. coli SH386 (pRRSH2-A1408G)
Text: (§4) E. coli SQ380 was transformed with pRRSH2-A1408G; and prrnC-sacB was removed by sucrose counterselection, resulting in E. coli SH386. As a control, E. coli SQ380 was also transformed with pRRSH2; and prrnC-sacB was removed by sucrose counterselection, resulting in E. coli SH430.

E. coli SH430 = test: Cell viability (OD600) assay of E. coli SH430 (pRRSH2, wild-type 16S rRNA)
Text: as §4

Molecule	detection of O-ribosome inhibition (fluorescence signal) (O-ribosome [2])	fluorescence at drug concentrations beyond those that give the peak response (O-ribosome [1])	detection of O-ribosome inhibition (fluorescence signal) (O-ribosome [1])	dose-dependent fluorescence response pattern (O-ribosome [1])	resistance of SH431 conferred by the U1406A mutation (E. coli SH431)	further results
NC[C@H]1O[C@H](O[C@H]2[C@H](O)[C@@H](O)[C@H](N)C[C@@H]2N)[C@H](N)[C@@H](O)[C@@H]1O [neamine]	–	–	–	–	–	growth inhibition activity (E. coli SH434): very weak; relative ribosome inhibition activity (rank among ten compounds) (O-ribosome [1]; listed as Neamine): very weak
NC[C@@H]1O[C@H](O[C@H]2[C@@H](O)[C@H](O[C@@H]3[C@@H](O)[C@H](N)C[C@H](N)[C@H]3O[C@H]3O[C@H](CN)[C@@H](O)[C@H](O)[C@H]3N)O[C@@H]2CO)[C@H](N)[C@@H](O)[C@@H]1O [neomycin, neomycin B]	lack of signal	fluorescence decreases significantly	able to detect O-ribosome inhibition	robust fluorescence responses at low concentrations	inability of the U1406A mutation to confer resistance	–
Cc1c2c(c(O)c3c(O)cccc13)C(=O)[C@]1(O)C(=O)C(C(N)=O)=C(O)[C@@H](N(C)C)[C@@H]1C2 [anhydrotetracycline]	–	–	–	–	–	fluorescence level relative to the gfp-uv/tetR-expressing strain (TetR): 106.6%±1.2%
gentamicin [gentamicins]	able to detect O-ribosome inhibition	fluorescence decreases significantly	able to detect O-ribosome inhibition	robust fluorescence responses at low concentrations	–	response at higher concentrations (O-ribosome [2]; E. coli SH431): Dose-dependent decreases in response; relative potency as ribosome inhibitor (rank among four compounds) (O-ribosome [2]; E. coli SH431): most potent ribosome inhibitors; growth inhibition accompanying the decrease in fluorescence (E. coli SH399): accompanied by growth inhibition
CN[C@@H]1[C@@H](O[C@H]2O[C@H](CO)[C@@H](N)[C@H](O)[C@H]2O)OC2C[C@@H](N)[C@@H](O[C@H]3[C@H](O)[C@@H](O)[C@H](N)C[C@@H]3N)OC2[C@@H]1O (stereo partly drawn) [apramycin]	lack of signal	–	able to detect O-ribosome inhibition	more gradual dose-dependent fluorescence increases	inability of the U1406A mutation to confer resistance	–
CN[C@@H]1[C@@H](O)[C@@H](O[C@@H]2[C@@H](O)[C@H](O[C@H]3OC(CN)=CC[C@H]3N)[C@@H](N)C[C@H]2N)OC[C@]1(C)O [sisomicin]	–	–	–	–	–	relative ribosome inhibition activity (rank among ten compounds) (O-ribosome [1]): strongest ribosome inhibition activity
NC[C@H]1O[C@H](O[C@H]2[C@H](O)[C@@H](O[C@H]3O[C@H](CO)[C@@H](O)[C@H](N)[C@H]3O)[C@H](N)C[C@@H]2N)[C@H](O)[C@@H](O)[C@@H]1O [kanamycin, kanamycin A]	able to detect O-ribosome inhibition	–	able to detect O-ribosome inhibition	robust dose-dependent increase in fluorescence; also recorded: more gradual dose-dependent fluorescence increases	–	increase in fluorescence (O-ribosome [3]): ~50%; maximum induction of fluorescence (O-ribosome [3]; strong background fluorescence): 1.6 fold; relative potency as ribosome inhibitor (rank among four compounds) (O-ribosome [2]; E. coli SH431): least potent; concentration up to which the strain is resistant (highest concentration tested) (E. coli SH386; E. coli SH386, A1408G): up to 500 μM; growth inhibition (E. coli SH386; E. coli SH386, any kanamycin concentration tested (up to 500 μM), 24 hours): no growth inhibition; growth inhibition (E. coli SH430; E. coli SH430, 10 μM kanamycin, 24 hours): significant growth inhibition; concentrations at which the strain cannot survive (E. coli SH430; E. coli SH430, 24 hours): above 10 μM
NC[C@@H]1O[C@H](O[C@H]2[C@@H](O)[C@H](O[C@@H]3[C@@H](O)[C@H](N)C[C@H](N)[C@H]3O[C@H]3O[C@H](CO)[C@@H](O)[C@H](O)[C@H]3N)O[C@@H]2CO)[C@H](N)[C@@H](O)[C@@H]1O [paromomycin]	lack of signal	fluorescence decreases significantly	able to detect O-ribosome inhibition	robust fluorescence responses at low concentrations	inability of the U1406A mutation to confer resistance	growth inhibition accompanying the decrease in fluorescence (E. coli SH399): accompanied by growth inhibition
